Data from ChEMBL document CHEMBL1201862, “PubChem BioAssay data set” (2004).
Activity calls are given as the source filed them. Where a SMILES comes first, the peptide text is derived from it. Square brackets hold non-standard residues; d marks the D form. Peptide text beside a SMILES is read from it.

Key:
[1] = system: Streptococcus; assay: Group A Streptococcus viability loss, dose response, counter-screen for streptokinase expression inhibitor project, luminescence, BacTiterGlo (AID 1915); format: functional, organism-based;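 note: potency for reduction of bacterial viability or growth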
[2] = target: T1, Short transient receptor potential channel 4 (Mus musculus, UniProt Q9QUQ5); assay: mouse TRPC4 channel inhibitors, dose response, cell-based, HEK293 TRPC4/mu-opioid, Fluo-4 calcium (AID 434942); format: functional;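 note: potency of inhibitors blocking the TRPC4 calcium response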
T1 sequence (Q9QUQ5 whole entry): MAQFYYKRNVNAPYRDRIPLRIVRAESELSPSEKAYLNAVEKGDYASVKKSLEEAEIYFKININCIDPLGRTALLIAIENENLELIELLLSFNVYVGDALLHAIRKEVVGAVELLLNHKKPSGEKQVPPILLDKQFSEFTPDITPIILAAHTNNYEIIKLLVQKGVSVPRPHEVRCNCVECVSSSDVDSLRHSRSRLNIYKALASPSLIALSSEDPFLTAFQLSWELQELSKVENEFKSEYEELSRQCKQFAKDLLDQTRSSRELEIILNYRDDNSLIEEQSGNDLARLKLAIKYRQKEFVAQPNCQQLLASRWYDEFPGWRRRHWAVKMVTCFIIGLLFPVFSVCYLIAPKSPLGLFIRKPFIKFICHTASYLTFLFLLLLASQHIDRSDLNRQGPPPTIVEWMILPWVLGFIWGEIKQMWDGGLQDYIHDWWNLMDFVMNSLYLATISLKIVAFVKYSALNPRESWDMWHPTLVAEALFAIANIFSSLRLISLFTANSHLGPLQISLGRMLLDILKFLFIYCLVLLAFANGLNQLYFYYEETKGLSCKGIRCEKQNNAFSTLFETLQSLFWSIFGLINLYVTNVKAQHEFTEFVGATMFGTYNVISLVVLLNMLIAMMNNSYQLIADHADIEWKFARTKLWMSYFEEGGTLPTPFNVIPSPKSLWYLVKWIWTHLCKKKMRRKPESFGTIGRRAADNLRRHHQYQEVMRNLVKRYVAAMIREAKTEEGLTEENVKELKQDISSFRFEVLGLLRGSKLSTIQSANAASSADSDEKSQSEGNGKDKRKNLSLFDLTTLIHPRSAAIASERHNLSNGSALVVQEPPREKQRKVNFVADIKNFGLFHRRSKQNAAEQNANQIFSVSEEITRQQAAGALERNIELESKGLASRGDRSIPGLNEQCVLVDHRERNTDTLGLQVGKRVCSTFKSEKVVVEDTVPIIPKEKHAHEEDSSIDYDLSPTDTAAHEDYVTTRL

[3] = system: Streptococcus sp. 'group A'; assay: growth inhibition of control SK(-) GAS strain, dose response, counter-screen for streptokinase expression inhibitor project, luminescence, kanamycin, BacTiterGlo, confirmation (AID 1900); format: functional, organism-based
[4] = target: T2, Streptokinase A (Streptococcus pyogenes serotype M1, UniProt P10520); assay: S. pyogenes streptokinase expression inhibitors, potency, dose response, plasminogen activation absorbance, OD405 (AID 1914); format: functional, Streptococcus pyogenes M1 GAS;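 note: secreted streptokinase activity via plasminogen activation per viability signal from cell pellet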
T2 sequence (P10520 whole entry): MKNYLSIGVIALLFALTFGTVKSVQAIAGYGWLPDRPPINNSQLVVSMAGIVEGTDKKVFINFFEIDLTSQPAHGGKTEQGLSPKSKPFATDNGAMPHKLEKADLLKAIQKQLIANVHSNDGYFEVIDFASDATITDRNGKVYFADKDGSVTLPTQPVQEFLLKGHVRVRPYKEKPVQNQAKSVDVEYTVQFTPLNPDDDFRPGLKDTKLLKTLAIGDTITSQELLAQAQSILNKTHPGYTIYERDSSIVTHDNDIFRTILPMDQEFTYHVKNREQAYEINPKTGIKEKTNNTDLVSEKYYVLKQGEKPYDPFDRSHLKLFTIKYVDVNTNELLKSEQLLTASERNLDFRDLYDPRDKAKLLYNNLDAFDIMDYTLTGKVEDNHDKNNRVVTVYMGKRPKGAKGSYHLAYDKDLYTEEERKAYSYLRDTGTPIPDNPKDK

[5] = target: T3, Carboxy-terminal domain RNA polymerase II polypeptide A small phosphatase 1 (Homo sapiens, UniProt Q9GZU7); assay: inhibitors of CTDSP1, concentration-response testing, biochemical assay, absorbance-based, actives from ultra-high-throughput screening (AID 540297); format: functional
T3 sequence (Q9GZU7 whole entry): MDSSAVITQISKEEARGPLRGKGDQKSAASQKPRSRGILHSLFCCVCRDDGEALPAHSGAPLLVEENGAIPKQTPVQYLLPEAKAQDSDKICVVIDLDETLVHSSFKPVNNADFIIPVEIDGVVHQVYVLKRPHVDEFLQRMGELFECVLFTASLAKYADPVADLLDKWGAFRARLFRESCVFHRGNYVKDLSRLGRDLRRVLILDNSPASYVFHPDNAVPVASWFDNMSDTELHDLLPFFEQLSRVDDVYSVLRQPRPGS

[6] = target: Induced myeloid leukemia cell differentiation protein Mcl-1 (Homo sapiens, UniProt Q07820); format: functional
Induced myeloid leukemia cell differentiation protein Mcl-1, sequence (Q07820 whole entry): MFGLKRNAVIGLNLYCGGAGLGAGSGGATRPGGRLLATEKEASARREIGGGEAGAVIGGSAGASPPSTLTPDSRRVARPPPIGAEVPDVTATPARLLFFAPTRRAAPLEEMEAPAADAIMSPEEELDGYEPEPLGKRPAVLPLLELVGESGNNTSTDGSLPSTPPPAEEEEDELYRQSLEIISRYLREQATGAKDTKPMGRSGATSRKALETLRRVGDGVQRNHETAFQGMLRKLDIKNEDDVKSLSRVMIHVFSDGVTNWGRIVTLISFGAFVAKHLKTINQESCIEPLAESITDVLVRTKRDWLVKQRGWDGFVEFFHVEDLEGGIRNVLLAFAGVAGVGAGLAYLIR

[7] = target: Genome polyprotein (dengue virus type 2, UniProt P29990); assay: Dengue-2 NS5 methyltransferase inhibitors, primary screen, biochemical, confirmation dose response (AID 588689); format: functional
Genome polyprotein, sequence (P29990 2492-3391 limits assumed): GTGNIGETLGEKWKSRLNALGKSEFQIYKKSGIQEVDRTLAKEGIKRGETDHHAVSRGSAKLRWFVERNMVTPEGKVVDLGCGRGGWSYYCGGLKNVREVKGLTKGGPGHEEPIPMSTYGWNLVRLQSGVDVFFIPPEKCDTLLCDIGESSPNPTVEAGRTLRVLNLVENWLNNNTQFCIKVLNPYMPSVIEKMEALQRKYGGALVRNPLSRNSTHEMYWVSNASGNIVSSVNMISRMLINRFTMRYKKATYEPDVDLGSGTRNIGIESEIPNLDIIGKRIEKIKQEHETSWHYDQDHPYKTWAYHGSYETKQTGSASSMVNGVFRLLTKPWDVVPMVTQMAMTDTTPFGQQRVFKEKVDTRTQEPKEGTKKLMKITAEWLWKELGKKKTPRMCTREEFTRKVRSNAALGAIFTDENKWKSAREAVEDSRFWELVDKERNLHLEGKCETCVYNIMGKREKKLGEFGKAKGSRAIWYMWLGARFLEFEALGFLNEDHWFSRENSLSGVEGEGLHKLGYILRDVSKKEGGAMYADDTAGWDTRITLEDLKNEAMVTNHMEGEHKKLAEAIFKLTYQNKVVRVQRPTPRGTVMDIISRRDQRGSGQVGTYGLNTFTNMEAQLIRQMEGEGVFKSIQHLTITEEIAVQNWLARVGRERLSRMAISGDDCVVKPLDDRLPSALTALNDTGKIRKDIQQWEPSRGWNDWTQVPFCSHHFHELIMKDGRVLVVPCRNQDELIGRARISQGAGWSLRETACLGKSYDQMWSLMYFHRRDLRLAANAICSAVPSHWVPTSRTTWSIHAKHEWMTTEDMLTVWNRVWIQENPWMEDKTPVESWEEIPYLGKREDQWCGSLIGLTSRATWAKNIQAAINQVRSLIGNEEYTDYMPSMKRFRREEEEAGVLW

[8] = target: T4, RNA-binding protein pos-1 (Caenorhabditis elegans, UniProt G5EF15); assay: inhibitors of POS-1/mex-3 RNA binding, dose response, biochemical, fluorescence polarization (AID 1964);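 note: purified POS-1 fused to maltose binding protein made in E. coli; potency of compounds blocking POS-1 binding to fluorescent RNA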
T4 sequence (G5EF15 whole entry): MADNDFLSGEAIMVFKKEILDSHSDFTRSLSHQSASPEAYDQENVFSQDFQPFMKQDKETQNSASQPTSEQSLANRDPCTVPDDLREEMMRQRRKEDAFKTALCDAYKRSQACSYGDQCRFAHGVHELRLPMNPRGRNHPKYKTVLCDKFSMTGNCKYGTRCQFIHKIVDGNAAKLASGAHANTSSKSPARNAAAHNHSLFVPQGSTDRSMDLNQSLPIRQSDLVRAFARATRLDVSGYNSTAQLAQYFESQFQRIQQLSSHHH

[9] = target: T5, Zinc finger protein mex-5 (Caenorhabditis elegans, UniProt Q9XUB2); assay: MEX-5/TCR-2 RNA interaction inhibitors, dose response, biochemical, C. elegans, fluorescence polarization (AID 1960)
T5 sequence (Q9XUB2 whole entry): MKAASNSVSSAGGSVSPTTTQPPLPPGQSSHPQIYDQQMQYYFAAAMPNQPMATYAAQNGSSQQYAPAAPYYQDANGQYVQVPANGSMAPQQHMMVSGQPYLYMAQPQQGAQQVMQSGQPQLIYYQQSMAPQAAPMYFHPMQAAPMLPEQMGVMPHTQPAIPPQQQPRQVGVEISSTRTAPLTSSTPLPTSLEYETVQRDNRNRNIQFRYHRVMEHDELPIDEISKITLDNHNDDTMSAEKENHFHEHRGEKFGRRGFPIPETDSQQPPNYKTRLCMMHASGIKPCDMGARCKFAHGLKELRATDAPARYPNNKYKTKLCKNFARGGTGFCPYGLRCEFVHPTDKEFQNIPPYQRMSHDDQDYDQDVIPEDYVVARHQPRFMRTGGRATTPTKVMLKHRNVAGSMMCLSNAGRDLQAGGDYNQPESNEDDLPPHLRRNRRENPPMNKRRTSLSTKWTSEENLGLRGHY

[10] = target: T6, Replicative DNA helicase DnaB (Mycobacterium tuberculosis, UniProt P9WMR3); assay: DnaB intein splicing inhibitors, dose response, biochemical, cell-free fluorescence (AID 449749); format: functional
T6 sequence (P9WMR3 whole entry): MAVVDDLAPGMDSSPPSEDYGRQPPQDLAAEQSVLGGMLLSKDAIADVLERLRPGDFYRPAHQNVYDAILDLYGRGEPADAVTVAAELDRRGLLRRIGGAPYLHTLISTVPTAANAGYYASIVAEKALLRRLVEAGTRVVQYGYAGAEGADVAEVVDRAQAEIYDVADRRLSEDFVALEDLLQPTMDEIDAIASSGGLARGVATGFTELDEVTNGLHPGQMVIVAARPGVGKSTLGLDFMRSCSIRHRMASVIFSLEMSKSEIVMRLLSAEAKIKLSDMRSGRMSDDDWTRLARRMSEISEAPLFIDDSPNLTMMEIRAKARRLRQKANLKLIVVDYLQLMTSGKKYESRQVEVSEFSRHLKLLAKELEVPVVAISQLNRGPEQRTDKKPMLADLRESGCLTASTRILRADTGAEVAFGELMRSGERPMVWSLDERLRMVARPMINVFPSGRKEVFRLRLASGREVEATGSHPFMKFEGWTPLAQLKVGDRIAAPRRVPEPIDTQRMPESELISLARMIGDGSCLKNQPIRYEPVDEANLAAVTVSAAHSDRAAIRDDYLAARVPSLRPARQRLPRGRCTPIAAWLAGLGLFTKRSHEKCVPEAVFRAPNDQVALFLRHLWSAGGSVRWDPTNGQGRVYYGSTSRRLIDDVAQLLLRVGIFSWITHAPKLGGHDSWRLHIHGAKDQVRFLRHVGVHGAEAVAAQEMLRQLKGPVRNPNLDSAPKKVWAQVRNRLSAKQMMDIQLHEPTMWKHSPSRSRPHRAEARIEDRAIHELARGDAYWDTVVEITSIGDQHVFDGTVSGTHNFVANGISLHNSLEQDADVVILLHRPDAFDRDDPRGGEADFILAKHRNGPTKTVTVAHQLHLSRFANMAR

[11] = system: SN12K1; assay: cells; format: functional; conditions: Homo sapiens
[12] = system: P388/ADR; assay: cells; format: functional; conditions: Mus musculus
[13] = system: P388; assay: cells; format: functional; conditions: Mus musculus
[14] = intracellular Trypanosoma cruzi inhibitors in host cells – cell-based, plate reader, cherry-pick samples, set 3, dose response (AID 651818); format: functional;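 note: compounds incubated with infected cells for about four days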

| Compound | GI50 [11] | GI50 [12] | GI50 [13] | other results |
| --- | --- | --- | --- | --- |
| CC(=O)N1CCN(c2ccccc2NC(=O)c2cccs2)CC1 | – | – | – | EC50 [1]: > 150 µM (not active); EC50 [2]: 1.68 µM (active); EC50 [3]: > 150 µM (not active); EC50 [4]: > 150 µM (not active) |
| CCCCNC(=O)c1ccc2nc(-c3ccco3)c(-c3ccco3)nc2c1 | – | – | – | IC50 [5]: 3.77 µM (active); IC50 [6]: 6.65 µM (active); IC50 [7]: 80.4 µM (active) |
| COC(=O)Cn1cc(C=C2C(=O)NC(=O)NC2=O)c2ccccc21 | – | – | – | EC50 [8]: > 300 µM (not active); IC50 [7]: 25.7 µM (active); EC50 [9]: > 300 µM (not active) |
| COc1cc(C=C2C(=O)NC(=O)NC2=O)ccc1OS(=O)(=O)c1ccccc1[N+](=O)[O-] | – | – | – | IC50 [7]: 37.7 µM (active) |
| N=C(Cc1cccc2ccccc12)NOC(=O)c1cccs1 | – | – | – | EC50 [2]: 0.596 µM (active); AC50 [10]: 5.96 µM (active) |
| Cc1sc(C(C2C(=O)CC(C)(C)CC2=O)C2C(=O)CC(C)(C)CC2=O)cc1[N+](=O)[O-] | – | – | – | IC50 [7]: 29.4 µM (active) |
| CCS(=O)(=O)Nc1ccc(Nc2c3ccccc3nc3ccccc23)c(OC)c1 | 0.51 µM (active) | 0.0955 µM (active) | < 0.01 µM (active) | – |
| Cc1cc(/N=N/c2ccc(/N=N/c3c(O)c(S(=O)(=O)O)cc4cc(S(=O)(=O)O)ccc34)cc2C)ccc1/N=N/c1ccc2cc(S(=O)(=O)O)cc(S(=O)(=O)O)c2c1 | > 100 µM (inactive) | 26.5 µM (inactive) | 42.8 µM (inactive) | – |
| O=C(CCN1CCOCC1)C(=Cc1ccccc1)C(=O)CCN1CCOCC1 | 2.32 µM (inactive) | 0.255 µM (active) | 0.392 µM (active) | – |
| ClCCN(CC#CCCCC#CCN(CCCl)CCCl)CCCl | 10 µM (inactive) | 2.44 µM (inactive) | 0.736 µM (active) | – |
| O=C(NC/C=C/CO)c1ccccc1 | > 100 µM (inactive) | > 100 µM (inactive) | > 100 µM (inactive) | – |
| COc1ccc(NC(=O)Nc2ccc3c(c2)CC(=O)N([C@@H](C)CO)C[C@@H](C)[C@@H](CN(C)Cc2ccc(C(F)(F)F)cc2)O3)cc1 | – | – | – | AC50 [14]: 4.62 µM (active) |
| Cc1ccc(S(=O)(=O)N(C)C[C@H]2Oc3c(NC(=O)Nc4ccc5c(c4)OCO5)cccc3C(=O)N([C@H](C)CO)C[C@@H]2C)cc1 | – | – | – | AC50 [14]: 6.64 µM (active) |
| C[C@@H]1CN([C@@H](C)CO)C(=O)c2cccc(NC(=O)c3ccc(-c4nccs4)cc3)c2O[C@H]1CN(C)Cc1ccc(Oc2ccccc2)cc1 | – | – | – | AC50 [14]: 3.03 µM (active) |
| COc1ccc(S(=O)(=O)Nc2ccc3c(c2)CC(=O)N([C@H](C)CO)C[C@@H](C)[C@@H](CN(C)S(=O)(=O)c2cccs2)O3)cc1 | – | – | – | AC50 [14]: 6.01 µM (active) |
| C[C@@H]1CN([C@@H](C)CO)C(=O)Cc2cc(NS(=O)(=O)c3ccc(F)cc3)ccc2O[C@@H]1CN(C)Cc1ccc(Oc2ccccc2)cc1 | – | – | – | AC50 [14]: 3.56 µM (active) |
| CC(C)C[C@H](NC(=O)[C@H](CC(C)C)NC(=O)[C@@H](Cc1c[nH]c2ccccc12)NC(=O)[C@H](Cc1ccccc1)NC(=O)[C@@H](Cc1c[nH]c2ccccc12)NC(=O)[C@H](CCC(N)=O)NC(=O)[C@@H](CCC(N)=O)NC(=O)[C@@H]1CCCN1C(=O)[C@@H](CCCCN)NC(=O)[C@H]1CCCN1C(=O)[C@H](N)CCCN=C(N)N)C(N)=O (H-[dR][dP][dK]P[dQ]Q[dW]F[dW]LL-NH2) | > 100 µM (inactive) | > 100 µM (inactive) | > 79.8 µM (inactive) | – |
| CC1NC(=O)CNC(=O)CNC(=O)C(Cc2ccc(O)cc2)NC(=O)C(C(C)C)NC(=O)C(C)NC1=O (stereo not drawn) (cyclo(GGAAVY); configuration not given here) | > 100 µM (inactive) | > 100 µM (inactive) | > 100 µM (inactive) | – |
| CC[C@H]1CN2CCc3cc(OC)c(OC)cc3[C@@H]2C[C@@H]1C[C@H]1NCCc2c1[nH]c1ccc(O)cc21 [TUBULOSINE] | < 0.01 µM (active) | 0.493 µM (active) | < 0.01 µM (active) | – |
